Reference: ChEMBL document CHEMBL1157700, “Synthesis of 3-[(N-carboalkoxy)ethylamino]-indazole-dione derivatives and their biological activities on human liver carbonyl reductase” (Bioorg Med Chem, 2010)

System: A549
Assay: Potentiation of daunorubicin-induced cytotoxicity against human A549 cells
Format: functional

CNc1ncnc2c1c(-c1cccc(O)c1)cn2C(C)C
Activity: 25%
